Measured values reported in patent publication US8192962B2, “Processes for detecting toxic substances” (Daikin Industries, Ltd., priority 2001, dated 2012).

Tested on: Unknown protein yeast genes
Assay: DNA chip mRNA expression in yeast, unknown protein yeast genes (Table 1)
Format: cell-based, Saccharomyces cerevisiae S288C
Method in brief: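 S. cerevisiae S288C grown at 25° C. in YPD to log phase, then exposed 2 h to a toxicant at a growth-inhibiting, non-lethal concentration; untreated cells as control. Poly(A) mRNA reverse-transcribed with Cy3-dUTP or Cy5-dUTP, hybridized >12 h at 65° C. to whole-genome yeast DNA chip; value = fluorescence ratio treated/untreated.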

`COc1cc(CNC(=O)CCCCC=CC(C)C)ccc1O` [(12), 8-methyl-N-vanillyl-6-nonenamide] was tested, and the “The level of expressed mRNA in the presence of chemical substance/The level of expressed mRNA in the absence of chemical substance” value (yeast gene YAL053W, incubated two hours with chemical substance) was 0.6, the “The level of expressed mRNA in the presence of chemical substance/The level of expressed mRNA in the absence of chemical substance” value (yeast gene YBL048W) was 1.2 and the “The level of expressed mRNA in the presence of chemical substance/The level of expressed mRNA in the absence of chemical substance” value (yeast gene YBL107C) was 1.4. The “The level of expressed mRNA in the presence of chemical substance/The level of expressed mRNA in the absence of chemical substance” value (yeast gene YCR043C) was 0.6, the “The level of expressed mRNA in the presence of chemical substance/The level of expressed mRNA in the absence of chemical substance” value (yeast gene YCR102C) was 0.5 and the “The level of expressed mRNA in the presence of chemical substance/The level of expressed mRNA in the absence of chemical substance” value (yeast gene YDL072C, incubated two hours with chemical substance) was 1.2. The “The level of expressed mRNA in the presence of chemical substance/The level of expressed mRNA in the absence of chemical substance” value (yeast gene YDL204W, incubated two hours with chemical substance) was 0.9, the “The level of expressed mRNA in the presence of chemical substance/The level of expressed mRNA in the absence of chemical substance” value (yeast gene YDL222C, incubated two hours with chemical substance) was 1.0 and the “The level of expressed mRNA in the presence of chemical substance/The level of expressed mRNA in the absence of chemical substance” value (yeast gene YDR330W, incubated two hours with chemical substance) was 1.0. The “The level of expressed mRNA in the presence of chemical substance/The level of expressed mRNA in the absence of chemical substance” value (yeast gene YDR411C, incubated two hours with chemical substance) was 1.5, the “The level of expressed mRNA in the presence of chemical substance/The level of expressed mRNA in the absence of chemical substance” value (yeast gene YDR511W, incubated two hours with chemical substance) was 0.8 and the “The level of expressed mRNA in the presence of chemical substance/The level of expressed mRNA in the absence of chemical substance” value (yeast gene YDR545W, incubated two hours with chemical substance) was 0.9. For the same compound, the “The level of expressed mRNA in the presence of chemical substance/The level of expressed mRNA in the absence of chemical substance” value (yeast gene YEL001C, incubated two hours with chemical substance) was 1.1, the “The level of expressed mRNA in the presence of chemical substance/The level of expressed mRNA in the absence of chemical substance” value (yeast gene YER004W, incubated two hours with chemical substance) was 1.7 and the “The level of expressed mRNA in the presence of chemical substance/The level of expressed mRNA in the absence of chemical substance” value (yeast gene YER035W, incubated two hours with chemical substance) was 1.1. For the same compound, the “The level of expressed mRNA in the presence of chemical substance/The level of expressed mRNA in the absence of chemical substance” value (yeast gene YER079W, incubated two hours with chemical substance) was 0.9, the “The level of expressed mRNA in the presence of chemical substance/The level of expressed mRNA in the absence of chemical substance” value (yeast gene YER106W, incubated two hours with chemical substance) was 0.9 and the “The level of expressed mRNA in the presence of chemical substance/The level of expressed mRNA in the absence of chemical substance” value (yeast gene YER158C, incubated two hours with chemical substance) was 1.0. For the same compound, the “The level of expressed mRNA in the presence of chemical substance/The level of expressed mRNA in the absence of chemical substance” value (yeast gene YER163C, incubated two hours with chemical substance) was 1.0, the “The level of expressed mRNA in the presence of chemical substance/The level of expressed mRNA in the absence of chemical substance” value (yeast gene YER175C, incubated two hours with chemical substance) was 0.9 and the “The level of expressed mRNA in the presence of chemical substance/The level of expressed mRNA in the absence of chemical substance” value (yeast gene YFL006W, incubated two hours with chemical substance) was 1.2. The “The level of expressed mRNA in the presence of chemical substance/The level of expressed mRNA in the absence of chemical substance” value (yeast gene YFL010C, incubated two hours with chemical substance) was 1.5, the “The level of expressed mRNA in the presence of chemical substance/The level of expressed mRNA in the absence of chemical substance” value (yeast gene YFL024C) was 0.8 and the “The level of expressed mRNA in the presence of chemical substance/The level of expressed mRNA in the absence of chemical substance” value (yeast gene YFL032W, incubated two hours with chemical substance) was 0.7. For the same compound, the “The level of expressed mRNA in the presence of chemical substance/The level of expressed mRNA in the absence of chemical substance” value (yeast gene YGL037C, incubated two hours with chemical substance) was 0.8, the “The level of expressed mRNA in the presence of chemical substance/The level of expressed mRNA in the absence of chemical substance” value (yeast gene YGL047W, incubated two hours with chemical substance) was 1.1 and the “The level of expressed mRNA in the presence of chemical substance/The level of expressed mRNA in the absence of chemical substance” value (yeast gene YGL053W, incubated two hours with chemical substance) was 1.3. The “The level of expressed mRNA in the presence of chemical substance/The level of expressed mRNA in the absence of chemical substance” value (yeast gene YGL121C) was 1.6, the “The level of expressed mRNA in the presence of chemical substance/The level of expressed mRNA in the absence of chemical substance” value (yeast gene YGL199C, incubated two hours with chemical substance) was 0.9 and the “The level of expressed mRNA in the presence of chemical substance/The level of expressed mRNA in the absence of chemical substance” value (yeast gene YGR101W, incubated two hours with chemical substance) was 1.0. For the same compound, the “The level of expressed mRNA in the presence of chemical substance/The level of expressed mRNA in the absence of chemical substance” value (yeast gene YGR110W) was 1.4, the “The level of expressed mRNA in the presence of chemical substance/The level of expressed mRNA in the absence of chemical substance” value (yeast gene YGR130C, incubated two hours with chemical substance) was 0.7 and the “The level of expressed mRNA in the presence of chemical substance/The level of expressed mRNA in the absence of chemical substance” value (yeast gene YGR154C, incubated two hours with chemical substance) was 0.9. For the same compound, the “The level of expressed mRNA in the presence of chemical substance/The level of expressed mRNA in the absence of chemical substance” value (yeast gene YGR221C, incubated two hours with chemical substance) was 1.6, the “The level of expressed mRNA in the presence of chemical substance/The level of expressed mRNA in the absence of chemical substance” value (yeast gene YHL042W) was 0.6 and the “The level of expressed mRNA in the presence of chemical substance/The level of expressed mRNA in the absence of chemical substance” value (yeast gene YHR138C, incubated two hours with chemical substance) was 1.8. The “The level of expressed mRNA in the presence of chemical substance/The level of expressed mRNA in the absence of chemical substance” value (yeast gene YHR199C, incubated two hours with chemical substance) was 1.1, the “The level of expressed mRNA in the presence of chemical substance/The level of expressed mRNA in the absence of chemical substance” value (yeast gene YIL012W) was 0.6 and the “The level of expressed mRNA in the presence of chemical substance/The level of expressed mRNA in the absence of chemical substance” value (yeast gene YIL023C, incubated two hours with chemical substance) was 0.9. For the same compound, the “The level of expressed mRNA in the presence of chemical substance/The level of expressed mRNA in the absence of chemical substance” value (yeast gene YIL041W, incubated two hours with chemical substance) was 1.0, the “The level of expressed mRNA in the presence of chemical substance/The level of expressed mRNA in the absence of chemical substance” value (yeast gene YIL057C) was 0.6 and the “The level of expressed mRNA in the presence of chemical substance/The level of expressed mRNA in the absence of chemical substance” value (yeast gene YIL087C, incubated two hours with chemical substance) was 1.1. The “The level of expressed mRNA in the presence of chemical substance/The level of expressed mRNA in the absence of chemical substance” value (yeast gene YIL089W) was 0.6, the “The level of expressed mRNA in the presence of chemical substance/The level of expressed mRNA in the absence of chemical substance” value (yeast gene YIL102C) was 0.6 and the “The level of expressed mRNA in the presence of chemical substance/The level of expressed mRNA in the absence of chemical substance” value (yeast gene YJL057C, incubated two hours with chemical substance) was 1.0. The “The level of expressed mRNA in the presence of chemical substance/The level of expressed mRNA in the absence of chemical substance” value (yeast gene YJL066C, incubated two hours with chemical substance) was 1.0, the “The level of expressed mRNA in the presence of chemical substance/The level of expressed mRNA in the absence of chemical substance” value (yeast gene YJL082W, incubated two hours with chemical substance) was 1.3 and the “The level of expressed mRNA in the presence of chemical substance/The level of expressed mRNA in the absence of chemical substance” value (yeast gene YJL151C, incubated two hours with chemical substance) was 1.3. For the same compound, the “The level of expressed mRNA in the presence of chemical substance/The level of expressed mRNA in the absence of chemical substance” value (yeast gene YJL152W, incubated two hours with chemical substance) was 1.0, the “The level of expressed mRNA in the presence of chemical substance/The level of expressed mRNA in the absence of chemical substance” value (yeast gene YJL161W, incubated two hours with chemical substance) was 1.0 and the “The level of expressed mRNA in the presence of chemical substance/The level of expressed mRNA in the absence of chemical substance” value (yeast gene YJL171C, incubated two hours with chemical substance) was 1.0. For the same compound, the “The level of expressed mRNA in the presence of chemical substance/The level of expressed mRNA in the absence of chemical substance” value (yeast gene YJR008W, incubated two hours with chemical substance) was 1.3, the “The level of expressed mRNA in the presence of chemical substance/The level of expressed mRNA in the absence of chemical substance” value (yeast gene YJR054W, incubated two hours with chemical substance) was 0.9 and the “The level of expressed mRNA in the presence of chemical substance/The level of expressed mRNA in the absence of chemical substance” value (yeast gene YKL071W) was 1.0.
